Experimental data published in ChEMBL document CHEMBL5528075, “Unleashing the Potential of Camptothecin: Exploring Innovative Strategies for Structural Modification and Therapeutic Advancements” (J Med Chem, 2024).
Values after ≈ are worked out from the molar mass of the structure shown. Residues, ends and D or L forms follow the SMILES beside them. *: point of attachment. X1 = CC[C@@]1(OCCS*)C(=O)OCc2c1cc1n(c2=O)Cc2cc3ccccc3nc2-1

Key:
[1] = Clearance in mouse at 8 mg/kg, iv; format: ADME, organism-based; settings: in vivo
[2] = system: HepG2; experiment: Cytotoxicity against human HepG2 cells assessed as cell growth inhibition measured after 48 hrs by MTT assay; format: functional, cell-based; settings: HepG2, 48 h
[3] = system: A549; experiment: Antiproliferative activity against human A549 cells assessed as reduction in cell viability measured after 72 hrs by MTT assay; format: functional, cell-based; settings: A549, 72 h
[4] = system: HeLa; experiment: Cytotoxicity against human HeLa cells assessed as reduction in cell viability measured for 48 hrs by MTT assay; format: functional, cell-based
[5] = Antiproliferative activity against human HCT116-G7 cells assessed as reduction in cell viability measured after 72 hrs by MTT assay; format: functional, cell-based; settings: HCT116-G7, 72 h
[6] = Volume of distribution at steady state in mouse at 8 mg/kg, iv; format: ADME, organism-based; settings: in vivo, read-out: Vdss
[7] = Toxicity in iv dosed mouse assessed as lethal dose; format: organism-based; settings: in vivo
[8] = Antiproliferative activity against human HCT116-SN6 cells assessed as reduction in cell viability measured after 72 hrs by MTT assay; format: functional, cell-based; settings: HCT116-SN6, 72 h
[9] = system: L1210; experiment: Cytotoxicity against mouse L1210 cells assessed as reduction in cell viability measured for 24 hrs by MTT assay; format: functional, cell-based; settings: L1210, 24 h
[10] = system: A549; experiment: Growth inhibition of human A549 cells incubated for 72 hrs by MTT assay; format: functional
[11] = Primary half life in mouse at 8 mg/kg, iv; format: ADME, organism-based; settings: in vivo, read-out: alphat1/2
[12] = system: A549; experiment: cells; settings: Homo sapiens, A549, 72 h
Description: Cytotoxicity against human A549 cells assessed as reduction in cell growth incubated for 72 hrs by MTT assay

[13] = system: HCT-116; experiment: Antiproliferative activity against human HCT-116 cells assessed as reduction in cell viability measured after 72 hrs by MTT assay; format: functional, cell-based; settings: HCT-116, 72 h
[14] = system: A549; experiment: cells; settings: Homo sapiens, A549, 48 h
Description: Cytotoxicity against human A549 cells assessed as reduction in cell viability measured after 48 hrs by MTT assay

[15] = system: HCT-116; experiment: Cytotoxicity against human HCT-116 cells assessed as reduction in cell viability measured after 48 hrs by MTT assay; format: functional, cell-based; settings: HCT-116, 48 h
[16] = Aqueous solubility of compound at pH 7.4; format: physicochemical
[17] = Toxicity in ip dosed mouse assessed as lethal dose; format: organism-based; settings: in vivo
[18] = AUC in mouse at 8 mg/kg, iv; format: ADME, organism-based; settings: in vivo
[19] = system: HCT-116; experiment: cells; settings: Homo sapiens, HCT-116, 72 h
Description: Cytotoxicity against human HCT-116 cells assessed as reduction in cell growth incubated for 72 hrs by MTT assay

[20] = system: HepG2; experiment: Cytotoxicity against human HepG2 cells assessed as reduction in cell growth incubated for 72 hrs by MTT assay; format: functional, cell-based; settings: HepG2, 72 h
[21] = Toxicity in po dosed mouse assessed as lethal dose; format: organism-based; settings: in vivo
[22] = system: K562; experiment: Cytotoxicity against human K562 cells assessed as reduction in cell growth incubated for 48 hrs by MTT assay; format: functional, cell-based; settings: K562, 48 h
[23] = system: HeLa; experiment: cells; settings: Homo sapiens, 72 h
Description: Cytotoxicity against human HeLa cells assessed as reduction in cell growth incubated for 72 hrs by MTT assay

[24] = Terminal half life in mouse at 8 mg/kg, iv; format: ADME, organism-based; settings: in vivo, read-out: beta t1/2
[25] = system: K562; experiment: Growth inhibition of human K562 cells incubated for 72 hrs by MTT assay; format: functional
[26] = system: HCT-116; experiment: Growth inhibition of human HCT-116 cells incubated for 72 hrs by MTT assay; format: functional
[27] = system: HCT-116; experiment: Antitumor activity against human HCT-116 cells xenografted in mouse assessed as tumor growth inhibition at 5 mg/kg administered once for every 2 days for 2 weeks relative to control; format: functional; design: scale not given: the % may be the effect or the level left; settings: time 2 day
[28] = system: MCF7; experiment: Growth inhibition of human MCF7 cells incubated for 72 hrs by MTT assay; format: functional
[29] = system: HepG2; experiment: Antiproliferative activity against human HepG2 cells assessed as reduction in cell viability measured for 48 hrs by CCK-8 assay; format: functional, cell-based; settings: HepG2, 48 h
[30] = system: L1210; experiment: Antiproliferative activity against mouse L1210 cells assessed as inhibition of cell growth incubated for 24 hrs by MTT assay; format: functional, cell-based; settings: L1210, 24 h
[31] = system: HeLa; experiment: Antiproliferative activity against human HeLa cells assessed as reduction in cell viability measured for 48 hrs by CCK-8 assay; format: functional, cell-based
[32] = system: K562; experiment: Antiproliferative activity against human K562 cells assessed as reduction in cell viability measured for 48 hrs by CCK-8 assay; format: functional, cell-based; settings: K562, 48 h
[33] = Stability in human plasma assessed as half life measured upto 24 hrs by UV/LC-MS analysis; format: ADME, cell-free
[34] = Aqueous solubility of compound at pH6.5; format: physicochemical; settings: pH 6.5
[35] = Ratio AUC in mouse tumor to plasma; format: ADME, cell-free; settings: tumor and plasma, read-out: Ratio AUC
[36] = Antiproliferative activity against human SK-N-BE(2)-C cells expressing ABCG2 assessed as reduction in cell viability measured for 72 hrs by MTT assay; format: functional, cell-based
[37] = Antiproliferative activity against human NLF cells expressing ABCG2 assessed as reduction in cell viability measured for 72 hrs by MTT assay; format: functional, cell-based
[38] = system: HCT-116; experiment: Cytotoxicity against human HCT-116 cells assessed as reduction in cell growth measured after 72 hrs by MTT assay; format: functional, cell-based; settings: HCT-116, 72 h
[39] = system: HeLa; experiment: Cytotoxicity against human HeLa cells assessed as reduction in cell growth measured after 72 hrs by MTT assay; format: functional, cell-based
[40] = system: L1210; experiment: Cytotoxicity against mouse L1210 cells assessed as reduction in cell growth measured after 72 hrs by MTT assay; format: functional, cell-based; settings: L1210, 72 h
[41] = system: A549; experiment: Cytotoxicity against human A549 cells assessed as reduction in cell growth measured after 72 hrs by MTT assay; format: functional, cell-based; settings: A549, 72 h
[42] = target: T1, Neutrophil elastase (Mus musculus, UniProt Q3UP87); experiment: Inhibition of mouse Neutrophil elastase
T1 sequence (Q3UP87 whole entry): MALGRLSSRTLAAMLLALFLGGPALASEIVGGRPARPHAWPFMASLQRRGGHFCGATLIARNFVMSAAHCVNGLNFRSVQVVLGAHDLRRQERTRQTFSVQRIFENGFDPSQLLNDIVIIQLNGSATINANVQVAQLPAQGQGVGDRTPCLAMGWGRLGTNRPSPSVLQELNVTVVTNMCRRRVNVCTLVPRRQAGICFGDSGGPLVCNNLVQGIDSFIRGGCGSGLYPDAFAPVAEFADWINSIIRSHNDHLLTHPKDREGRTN

[43] = Drug recovery in bile duct cannulated rat bile measured for 48 hrs
[44] = Drug recovery in bile duct cannulated rat urine measured for 48 hrs
[45] = target: T2, Neutrophil elastase (Homo sapiens, UniProt P08246); experiment: Inhibition of human Neutrophil elastase
T2 sequence (P08246 whole entry): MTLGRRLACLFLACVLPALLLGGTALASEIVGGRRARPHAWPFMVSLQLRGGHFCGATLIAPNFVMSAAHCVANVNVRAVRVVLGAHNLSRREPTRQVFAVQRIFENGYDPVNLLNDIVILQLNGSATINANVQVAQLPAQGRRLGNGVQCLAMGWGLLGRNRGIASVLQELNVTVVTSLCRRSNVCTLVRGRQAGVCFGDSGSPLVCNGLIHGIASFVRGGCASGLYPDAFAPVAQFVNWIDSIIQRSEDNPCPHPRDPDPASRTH

[46] = Volume of distribution at steady state in mouse at 5 mg/kg, iv; format: ADME, organism-based; settings: in vivo, read-out: Vdss
[47] = system: L1210; experiment: Cytotoxicity against mouse L1210 cells assessed as reduction in cell viability measured for 24 hrs by SRB assay; format: functional, cell-based; settings: L1210, 24 h
[48] = system: HeLa; experiment: cells; settings: Homo sapiens, 24 h
Description: Cytotoxicity against human HeLa cells assessed as reduction in cell viability measured for 24 hrs by SRB assay

Compound: CC[C@@]1(O)C(=O)OCc2c1cc1n(c2=O)Cc2cc3ccccc3nc2-1 [CAMPTOTHECIN]
- clearance [1]: 38 mL/min/kg
- IC50 [2]: 7.25 nM
- EC50 [3]: 4.17 nM
- IC50 [4]: 8.9 nM
- EC50 [5]: 20.3 nM
- Vd [6]: 10.8 L/kg
- LD50 [7]: 38 mg/kg
- EC50 [8]: 7.63 nM
- IC50 [9]: 14 nM
- GI50 [10]: 5.69 ng/mL (≈ 0.0163 µM)
- half-life [11]: 0.35 h
- IC50 [12]: 0.32 ng/mL (≈ 0.000919 µM)
- EC50 [13]: 3.15 nM
- IC50 [14]: 0.32 nM
- IC50 [15]: 2.01 nM
- solubility [16]: 1.83 µM (≈ 0.637 µg/mL)
- LD50 [17]: 38 mg/kg
- AUC [18]: 212 µg/mL
- IC50 [19]: 2.01 ng/mL (≈ 0.00577 µM)
- IC50 [20]: 7.25 ng/mL (≈ 0.0208 µM)
- LD50 [21]: 50 mg/kg
- IC50 [22]: 2 nM
- IC50 [23]: 8.9 ng/mL (≈ 0.0255 µM)
- half-life [24]: 4.6 h
- GI50 [25]: 54.3 ng/mL (≈ 0.156 µM)
- GI50 [26]: 3.86 ng/mL (≈ 0.0111 µM)
- Activity [27]: 37.5%
- GI50 [28]: 1.98 ng/mL (≈ 0.00568 µM)

Compound: CC[C@@]1(O)C(=O)OCc2c1cc1n(c2=O)Cc2cc3c(CN(C)C)c(O)ccc3nc2-1 [TOPOTECAN]
- IC50 [29]: 60 nM
- IC50 [30]: 56 nM
- IC50 [31]: 376 nM
- IC50 [32]: 500 nM

Compound: CC[C@@]1(O)C(=O)OCc2c1cc1n(c2=O)Cc2cc3cc4c(cc3nc2-1)OCO4
- EC50 [3]: 0.86 nM
- EC50 [5]: 4.14 nM
- EC50 [8]: 2.28 nM
- IC50 [12]: 43 ng/mL (≈ 0.11 µM)
- EC50 [13]: 0.36 nM
- IC50 [19]: 50 ng/mL (≈ 0.127 µM)
- IC50 [20]: 104 ng/mL (≈ 0.265 µM)
- IC50 [23]: 40 ng/mL (≈ 0.102 µM)

Compound: CC[C@H](C)[C@H](NC(=O)[C@H](CCCCN)NC(=O)[C@H](CCCCN)NC(=O)[C@H](C)NC(=O)[C@H](CC(C)C)NC(=O)[C@H](C)NC(=O)[C@H](C)NC(=O)[C@H](CC(C)C)NC(=O)[C@@H](NC(=O)[C@H](CCCCN)NC(=O)[C@H](CC(C)C)NC(=O)[C@H](CC(N)=O)NC(=O)[C@H](CCCCN)NC(=O)[C@H](CCCCN)NC(=O)[C@H](CC(C)C)NC(=O)[C@H](CC(C)C)NC(=O)[C@@H](N)CCCCN)C(C)C)C(=O)N[C@@H](CC(C)C)C(=O)NCC(=O)NCC(=O)N[C@@H](CSSCCO[C@]1(CC)C(=O)OCc2c1cc1n(c2=O)Cc2cc3ccccc3nc2-1)C(N)=O (H-KLLKKNLKVLAALAKKILGGC(X1)-NH2)
- half-life [33]: 2.5 h
- Activity [27]: 98.2%
- solubility [34]: 1.83 µM (≈ 4.81 µg/mL)

Compound: CC[C@@]1(O)C(=O)OCc2c1cc1n(c2=O)Cc2cc3ccc(O)cc3nc2-1
- Kp [35]: 6.1

Compound: CCc1c2c(nc3ccccc13)-c1cc3c(c(=O)n1C2)COC(=O)[C@]3(O)CC
- IC50 [36]: 7 nM
- IC50 [37]: 80 nM

Compound: CCc1c2c(nc3ccc(O)cc13)-c1cc3c(c(=O)n1C2)COC(=O)[C@]3(O)CC [7-ETHYL-10-HYDROXYCAMPTOTHECIN]
- IC50 [38]: 0.55 nM
- IC50 [39]: 22 nM
- IC50 [40]: 8.9 nM
- IC50 [41]: 1.62 nM

Compound: CC[C@@]1(O)C(=O)OCc2c1cc1n(c2=O)Cc2c-1nc1cc(F)c(C)c3c1c2[C@@H](N)CC3.CS(=O)(=O)O.O.O [EXATECAN MESYLATE]
- GI50 [10]: 0.914 ng/mL
- GI50 [25]: 10.4 ng/mL
- GI50 [26]: 0.347 ng/mL
- GI50 [28]: 0.322 ng/mL

Compound: CCCNC(=O)Nc1cccc(S(=O)(=O)Nc2cccc([C@@H](CC(=O)[O-])NC(=O)Nc3ccc(NC(=O)NCCOCCOCCOCCC(=O)N[C@@H](CC(=O)[O-])C(=O)N4CCC[C@H]4C(=O)N[C@H](C(=O)O[C@]4(CC)C(=O)OCc5c4cc4n(c5=O)Cc5c-4nc4ccccc4c5CC)C(C)C)cc3)c2)c1.[Na+].[Na+]
- IC50 [42]: 8900 nM
- dose excreted at 48 h [43]: 108%
- dose excreted at 48 h [44]: 2.4%
- IC50 [45]: 9600 nM

Compound: CC[C@@]1(O)C(=O)OCc2c1cc1n(c2=O)Cc2c-1nc1ccc(O)cc1c2[Si](C)(C)C(C)(C)C [AR-67]
- Vd [46]: 0.73 L/kg

Compound: CCc1c2c(nc3ccc(OC(=O)N4CCC(N5CCCCC5)CC4)cc13)-c1cc3c(c(=O)n1C2)COC(=O)[C@]3(O)CC [IRINOTECAN]
- IC50 [47]: 1200 nM
- IC50 [48]: 122 nM
